Data set [1] is described as follows: Stability investigation by NMR spectroscopy (hydrolysis in buffer/media). It is filed as physicochemical. Particulars: for Hydrolysis/Stability pH 5.5: 10 mM Mes; for Hydrolysis/Stability pH 5.5 / Hydrolysis/Stability pH 7.5: 107 mM NaCl; for long-term stability in aqueous solution: slightly acidic and neutral pH, 24 h and longer, NMR; for Hydrolysis/Stability pH 7.5: 10 mM Hepes or 10 mM Tris, pH 7.4. The source says: POMs of the globular Keggin and planar Anderson archetype and with varying charge status from -3 to -8 (Fig. 1) were selected. To offset the known [XW12O40]^n- (X = hetero-ion) hydrolysis propensity in aqueous solution, most pronounced at neutral pH, more highly charged mixed-metal derivatives (Fig. 1,lefthand side) were also included. The latter are obtained by hydrolytic removal of one W=O^4+ unit from the Keggin structure and the subsequent incorporation of an addenda metal to fill the cavity of the monolacunary intermediate. In detail, the following POM anions were studied (as acid or sodium, potassium, or tetraalkylammonium salts), see Fig. 1: [α-P^VW^VI12O40]^3- ([PW12]^3-), [α-Si^IVW^VI12O40]^4- ([SiW12]^4-), [α-Al^IIIW^VI12O40]^5- ([AlW12]^5-), [α-P^VV^VW^VI11O40]^4- ([PVW11]^4-), [α-Si^IVMo^VIW^VI11O40]^4- ([SiMoW11]^4-), [α- HAl^IIIGe^IVW^VI11O39(H2O)]^5- ([GeAlW11]^5-), [{α-P^VW^VI11O39Zr^IV(µ-OH)(H2O)}2]^8- ([(PZrW11)2]^8-), and [Al^III(OH)6Mo^VI6O18]^3- ([AlMo6]^3-). First, their long-term (24 h and longer) stability in aqueous solution (slightly acidic and neutral) was investigated by applying the active NMR nuclei in their composition (see).

The nature of data set [2]: Transport experiments in CF-loaded zwitterionic EYPC vesicles (CF fluorescence, Hill analysis). It is filed as biochemical. The arrangement: key to membrane transport activity: - - -: No detectable activity at pH 5.5 and 7.4. Particulars: for membrane transport activity: pH 5.5 and 7.4, heptaArg, protamine, polyArg (for [AlMo6]^3- heptaArg and protamine only); for behaviour towards liposomes at strongly acidic pH: pH 1.2. The procedure:
The dry film was rehydrated with 1 mL buffer (50 mM CF, 10 mM Hepes, pH 7.4 or 50 mM CF, 10 mM Tris, pH 7.4) for 30 min at room temperature, subjected to freeze-thaw cycles (7 times) and extrusions (15 times) through a polycarbonate membrane (pore size 100 nm). Extravesicular components were removed by size exclusion chromatography (NAP-25 column Sephadex G-25 DNA grade) with 10 mM Hepes, 107 mM NaCl, pH 7.4 or 10 mM Hepes, 107 mM NaCl, pH 7.4. Phospholipid concentration was calculated by the Stewart assay. […]
Vesicles stock solutions (5-10 µL) were diluted with the corresponding buffer in a disposable plastic cuvette and gently stirred (total volume 2000 µL, final lipid concentration 13 µM). […] Fluorescence intensities were normalized to fractional emission as: I(t) = (It −I0)/(I∞ −I0) [formula]
Where I0 = It before POM addition and […] = I∞ after lysis. For Hill analysis, It before lysis was defined as transport activity, Y, and plotted against POM concentration, c, and fitted to the Hill equation (2), to afford the activity in absence of POM, Y0, the maximal activity, Ymax, the concentration needed to achieve 50 % of maximal activity, EC50, and the Hill coefficient, n. Y = Y0 + (Ymax −Y0)/(1 + (((EC50)/(c)))^n) [formula]
In the transport measurements, where different carriers (POMs) are tested with the same cargo, the activator efficiency (E) is determined by their capacity to transport the impermeable cargo to the intravesicular region and is characterized by Ymax, its maximal activity, and EC50, the effective activator concentration. An ideal carrier reaches high Ymax at low EC50. To count both factors, the activator efficiency is defined as: E = Ymax (pEC50)/(f) [formula] were pEC50 is the negative logarithm of the EC50, and fa scaling factor, which was set to 20.6 to calibrate the highest (previously known) activation efficiency, E, as 10.
The capability of POMs to act as membrane carriers was explored first in large unilamellar vesicles (LUVs), loaded with carboxyfluorescein (CF). We selected […] representative cationic peptides, heptaarginine (heptaArg), heptalysine (heptaLys), protamine, and polyarginine (polyArg), as test cargos. Inside the LUVs, the CF dye was encapsulated at self-quenching concentrations. With a suitable carrier, heptaArg can be taken up into the vesicles, bind with entrapped CF, and shuttle back to the exterior, spreading the previously quenched CF, and thereby restoring its fluorescence (Fig. 3). In the time-resolved fluorescence experiments, to test whether a POM acts as molecular carrier, the CF emission was continuously monitored during the addition of the inorganic carrier (t = 60 s) and after injection the impermeable heptaArg (t = 120 s). At the end of the experiment (t = 600 s), the surfactant Triton X-100 was added to release all the entrapped CF and allow normalization of the intensity data (Fig. 4a).

The nature of data set [3]: HPTS/DPX assay of membrane transport in EYPC vesicles. Type of data set: biochemical. The following applies: Measured by HPTS/DPX assay.
The mark [4] stands for this setting: EYPC vesicles, 0.1 µM polyArg, neutral pH 7.4.
[5] abbreviates: EYPC vesicles, 0.1 µM polyArg, neutral pH 7.4, read-out: PolyArg EC50.
[6] abbreviates: EYPC vesicles, 1 µM protamine, neutral pH 7.4.
The mark [7] stands for this setting: Tris-HCl pH 7.5 freshly prepared.

As usually defined, the EC50 is the concentration needed to bring the measured effect to its halfway point.

On to Na3[α-P^VW^VI12O40]·nH2O [[PW12]^3-], for which, in data set [1], the “Hydrolysis/Stability pH 5.5” value is “to [P^VW^VI11O39]^7-”, the “hydrolysis above pH 4.5” value is recorded as “rapid hydrolysis” and the “long-term stability in aqueous solution” value is “fully hydrolyzed”. In addition, in data set [1] (Mes pH 5.5 after 1 day), the “% of hydrolysis product [P^VW^VI11O39]^7- based on signals integration” value was 61% and the “POM anions with % for parent (active) anion based on signals integration” value (“POM anions with % for parent” for short) is given as 5%. In data set [1] (Mes pH 5.5 freshly prepared), the “% of hydrolysis product [P^VW^VI11O39]^7- based on signals integration” value is given as 61% and the “POM anions with % for parent” value worked out at 4%. Besides, the “POM anions with % for parent” value in data set [1] (NaOAc/HOAc pH 4 after 1 day) was “[P^VW^VI12O40]^3- (28 %) and intermediate anions”. The “POM anions with % for parent” value in data set [1] (NaOAc/HOAc pH 4 freshly prepared) is “[P^VW^VI12O40]^3- (30 %) and intermediate anions”. For the same molecule, the “membrane transport activity” value in data set [2] (EYPC vesicles) was “- - -[j,k]”. Moreover, the “behaviour towards liposomes at strongly acidic pH” value in data set [2] is “strong interaction and membrane disruption”.
As for “(Et2NH2)8[{α-P^VW^VI11O39Zr^IV(µ-OH)(H2O)}2]·7H2O [[(PZrW11)2]^8-]”, the “Hydrolysis/Stability pH 7.5” value in data set [1] is reported as “stable”. The “POM anions with % for parent” value in data set [1] (Hepes pH 7.5 after 1 day) is “[{α-PW11O39Zr(µ-OH)(H2O)}2]^8-·(99 %) and [Zr(α-PW11O39)2]^10-”; in data set [1] (Hepes pH 7.5 freshly prepared), “[{α-PW11O39Zr(µ-OH)(H2O)}2]^8-·(99 %) and [Zr(α-PW11O39)2]^10-”. Further, the “membrane transport activity” value in data set [2] (EYPC vesicles) was “- - -[j]”.
In the case of B12Br12^2-, in data set [1], the “Hydrolysis/Stability pH 7.5” value is given as “stable” and the “Hydrolysis/Stability pH 5.5” value is “stable”. Further, in data set [3] (0.1 µM polyArg, pH 7.4), the “PolyArg E (activation efficiency)” value came out at 12 and the “PolyArg Ymax” value worked out at 94%. In data set [3] (0.1 µM polyArg, pH 7.4, read-out: PolyArg EC50), the 50% effective concentration (EC50) was 2.6 µM. Also, in data set [3] (1 µM protamine, pH 7.4), the “Protamine E (activation efficiency)” value turned out to be 8.0 and the “Protamine Ymax” value was 84%. Further, the EC50 in data set [3] (1 µM protamine, pH 7.4, read-out: Protamine EC50) was 11 µM. In addition, in data set [3] (10 µM heptaArg, pH 7.4), the “HeptaArg E (activation efficiency)” value was 6.1 and the “HeptaArg Ymax” value was determined as 95%. Moreover, the EC50 in data set [3] (10 µM heptaArg, pH 7.4, read-out: HeptaArg EC50) worked out at 48 µM.
As for K4[α-Si^IVW^VI12O40]·14H2O [[SiW12]^4-], in data set [1], the “Hydrolysis/Stability pH 7.5” value was “to [Si^VW^VI8O39]^8-”, the “hydrolysis above pH 4.5” value is recorded as “rapid hydrolysis” and the “long-term stability in aqueous solution” value is recorded as “fully hydrolyzed”. Further, the “POM anions with % for parent” value in data set [1] (Hepes pH 7.5 (time not given)) is “[Si^IVW^VI12O40]^4- and [Si^IVW^VInO39]^8- (high noise to signal ratio, correct integration of peak cannot be performed; but clearly [Si^IVW^VI11O39]^8- is predominant)”. For the same molecule, the “membrane transport activity” value in data set [2] (EYPC vesicles) is “- - -[jilt]”. For the same molecule, the “behaviour towards liposomes at strongly acidic pH” value in data set [2] was “showed the desired cargo transport at acidic pH, without membrane disruption”.
With `O=C(O)CCCc1ccc2ccc3cccc4ccc1c2c34` [PyBu^-, pyrenebutyrate, reference compound], in data set [1], the “Hydrolysis/Stability pH 7.5” value is reported as “stable” and the “Hydrolysis/Stability pH 5.5” value is recorded as “stable”. Besides, in data set [2] (setting [4]), the “PolyArg E (activation efficiency)” value turned out to be 8.5 and the “PolyArg Ymax” value came to 91%. Moreover, the concentration giving a half-maximal response (EC50) in data set [2] (setting [5]) was found to be 12 µM. In data set [2] (setting [6]), the “Protamine E (activation efficiency)” value turned out to be 5.3 and the “Protamine Ymax” value is reported as 77%. Moreover, the EC50 in data set [2] (EYPC vesicles, 1 µM protamine, neutral pH 7.4, read-out: Protamine EC50) was 39 µM. Besides, the “HeptaArg Ymax” value in data set [2] (EYPC vesicles, 10 µM heptaArg, neutral pH 7.4) came to 100%. Also, in data set [2] (EYPC vesicles, 10 µM heptaArg, neutral pH 7.4, E = Ymax(pEC50/f), f = 20.6), the “HeptaArg E (activation efficiency)” value was found to be 4.8. Moreover, the concentration for a half-maximal effect (EC50) in data set [2] (EYPC vesicles, 10 µM heptaArg, neutral pH 7.4, read-out: HeptaArg EC50) worked out at 100 µM. Besides, the “efficacy when the sequence of carrier-cargo addition was reversed” value in data set [2] (heptaarginine 10 µM, Fig. 12) was “significantly reduces its activity”.
In the case of “(C4H12N)4[α-HAl^IIIGe^IVW^VI11O39(H2O)]·11H2O [[GeAlW11]^5-]”, in data set [1], the “Hydrolysis/Stability pH 7.5” value was “stable” and the “long-term stability in aqueous solution” value is listed as “stable at neutral pH”. Also, in data set [1] (Tris-HCl pH 7.5 after 1 day), the “POM anions with % for parent” value was “[HAl^IIIGe^IVW^VI11O39(H2O)] ^4-”. Moreover, the “POM anions with % for parent” value in data set [1] (setting [7]) was “[HAl^IIIGe^IVW^VI11O39(H2O)] ^4-”. Besides, the “membrane transport activity” value in data set [2] (EYPC vesicles) is “- - -[j]”.
Turning to “Na5[α-Al^IIIW^VI12O40]·12H2O [[AlW12]^5-]”, in data set [1], the “Hydrolysis/Stability pH 7.5” value is on record as “stable” and the “long-term stability in aqueous solution” value is “stable at neutral pH”. Further, in data set [1] (Tris-HCl pH 7.5 after 1 day), the “POM anions with % for parent” value was “[Al^IIIW^VI12O40]^5-”. In data set [1] (setting [7]), the “POM anions with % for parent” value was “[Al^IIIW^VI12O40]^5-”. Moreover, the “membrane transport activity” value in data set [2] (EYPC vesicles) was “- - -[j]”.
“Na3[Al^III(OH)6Mo^VI6O18]·2H2O [[AlMo6]^3-]”: in data set [1], the “Hydrolysis/Stability pH 7.5” value is recorded as “stable”. The “POM anions with % for parent” value in data set [1] (Hepes pH 7.5 after 1 day) was “[Al^III(OH)6MO^VI6O18]^3-”. In addition, the “POM anions with % for parent” value in data set [1] (Hepes pH 7.5 freshly prepared) was “[Al^III(OH)6MO^VI6O18]^3-”. Besides, in data set [2] (setting [4]), the “PolyArg E (activation efficiency)” value is reported as 3.1 and the “PolyArg Ymax” value is on record as 33%. The concentration for a half-maximal effect (EC50) in data set [2] (setting [5]) was 11 µM. For the same molecule, the “membrane transport activity” value in data set [2] (EYPC vesicles) was “- - -[j]”. Further, the “cargo transport in CF-loaded vesicles (qualitative)” value in data set [2] (LUVs loaded with CF, added cargo) is listed as “incipient transport activity, but only for polyarginine as cargo”.

The values above are taken from EP4483904A1, “POLYOXOMETALATES AS MEMBRANE CARRIERS” (Universität Wien, priority 2023, dated 2025).
